Test results reported in PMC6138639, “The ZZ-type zinc finger of ZZZ3 modulates the ATAC complex-mediated histone acetylation and gene activation” (Nature Communications, 2018).
Numbering of substitutions follows the chain as printed.

Key:
[1] = molecular target: T1, ZZZ3 ZZ domain (aa 800–903), WT (Homo sapiens, UniProt Q8IYH5); assay: Tryptophan fluorescence binding of histone peptides to WT ZZZ3 ZZ domain; conditions: for Kd: 1.0 µM ZZZ3 ZZ (aa 800–903), 25 °C, 20 mM Tris–HCl pH 7.2, 150 mM NaCl, 1 mM DTT, mean ± SD of three experiments
T1 construct: The samples containing 1.0 µM ZZZ3 ZZ (aa 800–903); GST (N, cleaved yes); made in house; host or cells: E. coli BL21 (DE3) RIL
T1 sequence (Q8IYH5 800-903): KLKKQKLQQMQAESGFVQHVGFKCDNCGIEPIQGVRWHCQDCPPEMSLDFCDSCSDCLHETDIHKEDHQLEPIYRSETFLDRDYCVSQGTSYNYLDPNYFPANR
Experimental: Spectra were recorded at 25 °C on a Fluoromax-3 spectrofluorometer (HORIBA). The samples containing 1.0 µM ZZZ3 ZZ (aa 800–903) and progressively increasing concentrations of the histone peptide were excited at 295 nm. Experiments were performed in buffer containing 20 mM Tris–HCl (pH 7.2), 150 mM NaCl, and 1 mM DTT, with the exception of experiments shown in Supplementary Fig. 3b, which were performed in 100 mM NaCl buffer. Emission spectra were recorded over a range of wavelengths between 330 and 360 nm with a 0.5-nm step size and a 1-s integration time and averaged over three scans. The Kd values were determined using a nonlinear least-squares analysis and the equation: ΔI=ΔImaxL+P+Kd-L+P+Kd^2-4[P][L]/2[P] where [L] is the concentration of the histone peptide, [P] is the concentration of ZZZ3 ZZ domain, ΔI is the observed change of signal intensity, and ΔImax is the difference in signal intensity of the free and bound states of the ZZ domain. The Kd value was averaged over three separate experiments, with error calculated as the standard deviation between the runs.

ZZZ3 ZZ domain D824A = molecular target: T2, ZZZ3 ZZ domain D824A (Homo sapiens, UniProt Q8IYH5, D824A); assay: 1H,15N HSQC NMR titration of ZZZ3 ZZ D824A mutant with histone peptides; type: binding; conditions: measured by NMR (1H,15N HSQC titration); 0.1 mM 15N-labeled protein; 298 K
T2 construct: GST (N, cleaved yes); made in house; host or cells: E. coli BL21 (DE3) RIL
T2 sequence (Q8IYH5 818-877 D824A limits assumed): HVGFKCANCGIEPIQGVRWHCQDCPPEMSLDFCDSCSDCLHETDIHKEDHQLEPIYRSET
Experimental: (§1) In total, 0.1 mM uniformly ^15N-labeled WT or mutated ZZZ3-ZZ was used in NMR titrations. Binding was characterized by monitoring chemical shift changes in the proteins induced by histone peptides (synthesized by SynPeptide). Dissociation constant (Kd) was determined by applying PCA to the ^1H,^15N HSQC titration spectra in TREND[30]. Each binding isotherm was fitted using the following equation: pbound=∣∣PC1∣∣=L+P+Kd-L+P+Kd^2-4[P][L]/2[P] where [L] is the concentration of the histone peptide, [P] is the concentration of ZZ, pbound is the fraction of protein bound to a ligand, and PC1 is the normalized principal component, obtained by TREND, that indicates the change in the population of the bound state. The errors of the Kd value are the fitting uncertainties from nonlinear least-squares fits in Kaleidagraph.

ZZZ3 ZZ domain D848A = molecular target: T3, ZZZ3 ZZ domain D848A (Homo sapiens, UniProt Q8IYH5, D848A); assay: 1H,15N HSQC NMR titration of ZZZ3 ZZ D848A mutant with histone peptides; type: binding; conditions: measured by NMR (1H,15N HSQC titration); 0.1 mM 15N-labeled protein; 298 K
T3 construct: GST (N, cleaved yes); made in house; host or cells: E. coli BL21 (DE3) RIL
T3 sequence (Q8IYH5 818-877 D848A limits assumed): T2 sequence (Q8IYH5 818-877 D824A limits assumed) with A7D, D31A
Experimental: as §1

[2] = molecular target: T4, ZZZ3 ZZ domain (a.a. 800–903) (Homo sapiens, UniProt Q8IYH5); assay: Microscale thermophoresis (MST) displacement binding assay; conditions: displacement of 80 nM fluorescein-labeled H3 (1–12) from 5 μM ZZ by unlabeled peptide; 20 mM Tris–HCl pH 7.0, 150 mM NaCl, 3 mM DTT; H3 triplicates, H3K4ac duplicates
T4 construct: The samples containing 1.0 µM ZZZ3 ZZ (aa 800–903); GST (N, cleaved yes); made in house; host or cells: E. coli BL21 (DE3) RIL
T4 sequence (Q8IYH5 800-903): T1 sequence (Q8IYH5 800-903)
Experimental: The MST experiments were performed using a Monolith NT.115 instrument (NanoTemper) as described previously. All experiments were performed with the purified ZZ domain (a.a. 800-903) in a buffer containing 20 mM Tris-HCl (pH 7.0), 150 mM NaCl, and 3 mM DTT. The final concentration of the C-terminal fluorescein-labeled histone H3 peptide (1-12, KE BIOCHEM) was kept at 80 nM. Dissociation constants for the interaction between ZZ with unlabeled peptides H3 (1-12) and H3K4ac (1-12) were measured using a displacement assay in which increasing amounts of unlabeled peptides were added into a preformed ZZ:H3-FAM complex prepared by supplementing 5 μM ZZ into each sample. The measurements were performed at 50% LED and 40% MST power with 3-s laser on time and 22 s off time. For all measurements, samples were loaded into premium capillaries and 1400-1700 counts were obtained for the fluorescence intensity. The Kd and IC50 values were determined with the MO.Affinity Analysis software (NanoTemper Technologies GmbH), using two independent MST measurements. […] The Kd value is the dissociation constant of labeled H3 peptide determined in the direct binding experiment described above. […]

ATAC complex = molecular target: T5, ATAC complex (Homo sapiens, UniProt Q8IYH5); assay: In vitro HAT assay of purified ATAC complex with histone peptides or mononucleosomes; type: biochemical; conditions: 1 μg peptide, 0.1 mM acetyl-CoA, 37 °C, western blot
T5 construct: expressed in transfected cells; nuclear extract, M2-agarose, eluted with triple-FLAG peptide
Experimental: Nuclear extracts were prepared from stable cells using a standard protocol. Briefly, approximately 2 mg of nuclear extract was incubated with 25 µl of M2-agarose beads (Sigma) overnight at 4 °C. The beads were washed four times with high-salt wash buffer (10 mM HEPES, pH 7.9, 25% glycerol, 1.5 mM MgCl2, 300 mM KCl, and 0.1% Triton X-100), followed by two washes with low-salt wash buffer (10 mM HEPES, pH 7.9, 25% glycerol, 1.5 mM MgCl2, 100 mM KCl, and 0.1% Triton X-100). Elution was achieved by two consecutive incubations of the beads with 0.5 mg/ml triple-FLAG peptide (Sigma) in 200 µl of low-salt wash buffer. All buffers contained phenylmethylsulfonyl fluoride and protease inhibitor cocktail (Roche).
Purified complexes were incubated for indicated times at 37 °C with peptides (1 μg) or mononucleosomes (10 μg) and 0.1 mM acetyl-CoA in HAT reaction buffer (50 mM Tris, pH 8.0, 0.1 mM EDTA, 10% glycerol, 1 mM PMSF, and 1 mM DTT) in a total volume of 50 μL. Reactions were quenched by flash-freezing in liquid nitrogen and then analyzed by SDS-PAGE and western blot. Uncropped western blots are shown in Supplementary Figure 11.

ZZZ3 ZZ domain = molecular target: T6, ZZZ3 ZZ domain (Homo sapiens, UniProt Q8IYH5); assay: Binding of non-H3-like peptide to ZZZ3 ZZ domain (Supplementary Fig. 2i); conditions: N-terminal Ala1 added to a non-H3-like peptide
T6 construct: made in house; host or cells: E. coli BL21 (DE3) RIL
T6 sequence (Q8IYH5 818-877 limits assumed): T2 sequence (Q8IYH5 818-877 D824A limits assumed) with A7D

Compound	Kd [1] [µM]	Kd, ZZZ3 ZZ domain D824A (ZZZ3 ZZ domain D824A)	Kd [2] [µM]	HAT activity of the ATAC complex on the peptide substrate (ATAC complex)	further results
C[C@H](N)C(=O)N[C@@H](CCCNC(=N)N)C(=O)N[C@H](C(=O)N[C@@H](CCCCN)C(=O)N[C@@H](CCC(N)=O)C(=O)N[C@H](C(=O)N[C@@H](C)C(=O)N[C@@H](CCCNC(=N)N)C(=O)N[C@@H](CCCCN)C(=O)N[C@@H](CO)C(=O)N[C@H](C(=O)NCC(=O)O)[C@@H](C)O)[C@@H](C)O)[C@@H](C)O [H3]	29	No binding	18		Kd, ZZZ3 ZZ domain D848A (ZZZ3 ZZ domain D848A): No binding
H3 (3–33): biotinylated histone H3 peptide lacking the first two amino acids, HAT substrate				abolishes the HAT activity	
C[C@H](N)C(=O)N[C@@H](CCCNC(=N)N)C(=O)N[C@H](C(=O)N[C@@H](CCCC[N+](C)(C)C)C(=O)N[C@@H](CCC(N)=O)C(=O)N[C@H](C(=O)N[C@@H](C)C(=O)N[C@@H](CCCNC(=N)N)C(=O)N[C@@H](CCCCN)C(=O)N[C@@H](CO)C(=O)N[C@H](C(=O)NCC(=O)O)[C@@H](C)O)[C@@H](C)O)[C@@H](C)O [H3K4me3]					Kd ([1]; SD): 22 ± 6 µM
AGSGSG [non-H3-like peptide with an added N-terminal Ala1]					Binding to the ZZZ3 ZZ domain (ZZZ3 ZZ domain): insufficient to bind
CC(=O)NCCCC[C@H](NC(=O)[C@@H](NC(=O)[C@H](CCCNC(=N)N)NC(=O)[C@H](C)N)[C@@H](C)O)C(=O)N[C@@H](CCC(N)=O)C(=O)N[C@H](C(=O)N[C@@H](C)C(=O)N[C@@H](CCCNC(=N)N)C(=O)N[C@@H](CCCCN)C(=O)N[C@@H](CO)C(=O)N[C@H](C(=O)NCC(=O)O)[C@@H](C)O)[C@@H](C)O [H3K4ac]	8.2	No binding	5.5		Fold enhancement of ZZ association over the unmodified H3 peptide ([1]; Kd 8.2 μM versus 29 μM): ~ 3 fold
Lys4-acetylated H3 peptide: Lys4-acetylated H3 (1-22) peptide used as HAT substrate				better substrate	
